For the first experiment, the target named is T1, wild-type human cardiac sodium channel, hNav1.5 (late sodium current) (Homo sapiens, UniProt Q14524).
T1 construct: host or cells: HEK293
T1 sequence (Q14524 whole entry): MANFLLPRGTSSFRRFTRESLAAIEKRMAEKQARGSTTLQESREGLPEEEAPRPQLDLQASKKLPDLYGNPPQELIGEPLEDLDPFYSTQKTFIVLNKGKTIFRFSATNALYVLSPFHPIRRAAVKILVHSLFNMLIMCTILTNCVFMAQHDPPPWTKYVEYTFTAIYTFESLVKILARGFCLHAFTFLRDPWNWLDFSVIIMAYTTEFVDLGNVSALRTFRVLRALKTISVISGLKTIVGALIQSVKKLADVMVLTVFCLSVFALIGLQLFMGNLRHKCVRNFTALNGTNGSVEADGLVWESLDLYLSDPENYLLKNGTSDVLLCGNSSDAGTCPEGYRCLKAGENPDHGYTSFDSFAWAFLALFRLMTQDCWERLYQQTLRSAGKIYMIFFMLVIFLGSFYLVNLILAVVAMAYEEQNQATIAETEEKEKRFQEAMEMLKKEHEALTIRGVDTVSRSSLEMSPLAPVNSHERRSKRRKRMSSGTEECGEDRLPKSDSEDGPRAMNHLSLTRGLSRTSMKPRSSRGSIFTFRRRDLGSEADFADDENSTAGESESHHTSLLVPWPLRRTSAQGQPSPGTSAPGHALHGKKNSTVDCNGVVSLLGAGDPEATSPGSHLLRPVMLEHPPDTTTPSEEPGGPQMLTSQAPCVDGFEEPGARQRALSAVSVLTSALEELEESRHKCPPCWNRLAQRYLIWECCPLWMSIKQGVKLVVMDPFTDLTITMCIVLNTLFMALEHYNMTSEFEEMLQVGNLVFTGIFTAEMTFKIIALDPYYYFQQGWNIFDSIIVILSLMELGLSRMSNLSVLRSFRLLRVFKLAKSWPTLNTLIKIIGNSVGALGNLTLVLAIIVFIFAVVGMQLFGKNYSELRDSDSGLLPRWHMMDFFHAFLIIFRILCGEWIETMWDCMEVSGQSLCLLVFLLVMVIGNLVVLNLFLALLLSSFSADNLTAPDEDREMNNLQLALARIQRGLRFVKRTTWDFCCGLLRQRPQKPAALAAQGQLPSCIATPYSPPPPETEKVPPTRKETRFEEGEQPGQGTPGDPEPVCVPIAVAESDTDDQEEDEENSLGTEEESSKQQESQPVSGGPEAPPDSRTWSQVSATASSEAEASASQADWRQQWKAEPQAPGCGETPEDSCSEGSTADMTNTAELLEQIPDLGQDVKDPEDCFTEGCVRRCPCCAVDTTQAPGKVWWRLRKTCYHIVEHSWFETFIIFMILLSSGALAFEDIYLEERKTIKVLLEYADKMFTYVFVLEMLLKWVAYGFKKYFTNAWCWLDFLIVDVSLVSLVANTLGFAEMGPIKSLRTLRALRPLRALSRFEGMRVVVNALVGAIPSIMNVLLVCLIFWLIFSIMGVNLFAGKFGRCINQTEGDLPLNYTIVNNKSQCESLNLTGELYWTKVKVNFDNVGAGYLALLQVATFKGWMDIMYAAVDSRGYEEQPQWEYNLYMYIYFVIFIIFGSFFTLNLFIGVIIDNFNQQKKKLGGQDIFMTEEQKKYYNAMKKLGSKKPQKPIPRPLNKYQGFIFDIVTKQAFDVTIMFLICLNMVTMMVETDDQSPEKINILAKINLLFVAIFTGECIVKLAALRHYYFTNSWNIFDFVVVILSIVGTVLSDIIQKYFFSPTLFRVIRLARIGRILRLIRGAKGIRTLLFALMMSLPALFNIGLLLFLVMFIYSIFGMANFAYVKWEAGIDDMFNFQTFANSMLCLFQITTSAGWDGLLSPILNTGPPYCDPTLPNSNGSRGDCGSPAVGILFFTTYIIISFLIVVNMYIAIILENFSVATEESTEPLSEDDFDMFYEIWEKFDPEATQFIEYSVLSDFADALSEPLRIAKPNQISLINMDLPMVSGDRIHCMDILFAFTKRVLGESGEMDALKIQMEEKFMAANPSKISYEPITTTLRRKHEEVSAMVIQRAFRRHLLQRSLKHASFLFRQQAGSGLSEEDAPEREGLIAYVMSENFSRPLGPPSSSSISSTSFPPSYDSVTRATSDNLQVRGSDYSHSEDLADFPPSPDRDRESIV
The experiment is described as follows: Late INa screening assay (PatchXpress whole cell patch clamp). The format is cell-based. To be noted: 1 μM test compound; HEK293 hNav1.5; late INa generated with 10 μM Tefluthrin (some experiments 50 nM ATX II); read-out: Late INa % blk (1 μM test cmpd). The procedure:
The late sodium current (Late INa) and peak sodium current (Peak INa) assays are performed on an automated electrophysiology platform, PatchXpress 7000A (MDS Analytical Technologies, Sunnyvale, Calif.), which uses the whole cell patch clamp technique to measure currents through the cell membrane of up to 16 cells at a time. The assay uses an HEK293 (human embryonic kidney) cell line heterologously expressing the wild-type human cardiac sodium channel, hNav1.5, purchased from Millipore (Billerica, Mass.). No beta subunits were coexpressed with the Na channel alpha subunit. Cells are maintained with standard tissue culture procedures and stable channel expression is maintained with 400 μg/ml Geneticin in the culture medium. […] Experiments are carried out at 24-27° C.
For both the Late INa and Peak INa assays, series resistance compensation is set to 50% and whole-cell compensation is performed automatically. […] Currents through open sodium channels are automatically recorded and stored in the DataXpress2 database (MDS Analytical Technologies, Sunnyvale, Calif.). Analysis is performed using DataXpress2 analysis software and data are compiled in Excel.
Compound stocks are routinely made in glass vials to 10 mM in dimethyl sulfoxide (DMSO). In some cases, when compounds are not soluble in DMSO, they are made in 100% ethanol. Stocks are sonicated as necessary. The extracellular solution for screening Late INa is composed of: 140 mM NaCl, 4 mM KCl, 1.8 mM CaCl2, 0.75 mM MgCl2, and 5 mM HEPES with pH adjusted to 7.4 using NaOH. The extracellular solution for screening Peak INa is composed of: 20 mM NaCl, 120 mM N-methyl-D glucamine, 4 mM KCl, 1.8 mM CaCl2, 0.75 mM MgCl2, and 5 mM HEPES with pH adjusted to 7.4 using HCl. The intracellular solution used to perfuse the inside of the cells for both the Late INa and Peak INa assays contains: 120 mM CsF, 20 mM CsCl, 5 mM EGTA, 5 mM HEPES and pH adjusted to 7.4 with CsOH. […] The 0Na extracellular solution used at the end of each experiment for the Late INa and Peak INa assays to measure baseline current contains: 140 mM N-methyl-D-glucamine; 4 mM KCl; 1.8 mM CaCl2; 0.75 mM MgCl2; 5 mM HEPES and pH was adjusted to 7.4 with HCl.
For the Late INa assay, sodium channels are activated every 10 seconds (0.1 Hz) by depolarizing the cell membrane to −20 mV for 250 milliseconds (ms) from a holding potential of −120 mV. In response to a −20 mV voltage step, typical Nav1.5 sodium currents activate rapidly to a peak negative current and then inactivate nearly completely within […].
All compounds are tested to determine their activity in blocking the late sodium current. Late INa current is generated by adding 10 μM Tefluthrin (pyrethroid) to the extracellular solution while recording Na currents For some experiments, 50 nM ATX II (sea anemone toxin), another late Na activator, was used to generate the late component. […] After establishing the whole cell recording configuration, late INa activators are added to each well 4 times over a 16-17 minute period so that the late component of the Na current reaches a stable value. […] Measurements are made at the end of exposure to the third compound addition and values are normalized to the current level when all Na^+ is removed from the extracellular solution after two additions of ONa-ECF. Results are reported as percent block of late INa
Background: The patch-clamp technique gives a direct electrical read-out from membranes.
For `CS(=O)(=O)Nc1ccc(-c2cccc(OC(F)(F)F)c2)c(F)c1` [PT-067, N-[2-fluoro-3′-(trifluoromethoxy)biphenyl-4-yl]methanesulfonamide], the inhibition at 1 µM was found to be 13.8%. On the same count and under the same terms, the result for `CS(=O)(=O)Nc1ccc(-c2cccc(OC(F)(F)F)c2)c(Cl)c1` [PT-021, N-[2-chloro-3′-(trifluoromethoxy)biphenyl-4-yl]methanesulfonamide] reads 34%. On the same count and under the same terms, as for `CS(=O)(=O)Nc1ccc(-c2ccc(Cl)cc2)c(Cl)c1` [PT-043, N-(2,4′-dichlorobiphenyl-4-yl)methanesulfonamide], the figure is 17.4%.

The same experiment, now with this note: 10 μM test compound; HEK293 hNav1.5; late INa generated with 10 μM Tefluthrin (some experiments 50 nM ATX II); read-out: Late INa % blk (10 μM test cmpd).
Turning to `C#Cc1cc(NS(C)(=O)=O)ccc1-c1ccc(Oc2ccccc2)cc1` [PT-129, N-(2-ethynyl-4′-phenoxybiphenyl-4-yl)methanesulfonamide], the inhibition at 10 µM worked out at 44.4%. On the same count and under the same terms, as for `CCOC(=O)CN(c1ccc(-c2ccc(Cl)c(F)c2)c(OC)c1)S(C)(=O)=O` [PT-019, ethyl N-(4′-chloro-3′-fluoro-2-methoxybiphenyl-4-yl)-N-(methylsulfonyl)glycinate], the figure is 55%. Still for that read-out and setting: as for `CS(=O)(=O)Nc1ccc(-c2cc(F)cc(F)c2)c(Cl)c1` [PT-068, N-(2-chloro-3′,5′-difluorobiphenyl-4-yl)methanesulfonamide], the figure is 42.2%. As to `COc1ccc(NS(C)(=O)=O)cc1-c1cccc(OC(F)(F)F)c1` [PT-109, N-[6-methoxy-3′-(trifluoromethoxy)biphenyl-3-yl]methanesulfonamide], the inhibition at 10 µM was found to be 35.1%. On the same count and under the same terms, the result for `CS(=O)(=O)Nc1ccc(-c2ccc(Oc3ccc(F)cc3)cc2)cc1Cl` [PT-149, N-(3-chloro-4′-(4-fluorophenoxy)biphenyl-4-yl)methanesulfonamide] reads 58%.

Consider `O=S(=O)(Nc1ccc(-c2ccc(Oc3ccccc3)cc2)c(Cl)c1)C1CC1` [PT-048, N-(2-chloro-4′-phenoxybiphenyl-4-yl)cyclopropanesulfonamide], for which the inhibition at 10 µM stood at 37.9%.

In the case of `Cc1cc(N(Cc2ccc(C(=O)O)cc2)S(C)(=O)=O)ccc1-c1ccc(Oc2ccc(F)cc2)cc1` [PT-136, 4-((N-(4′-(4-fluorophenoxy)-2-methylbiphenyl-4-yl)methylsulfonamido)methyl)benzoic acid], the inhibition at 10 µM came out at 8.8%. Still for that read-out and setting: as for `Cc1cc(NS(C)(=O)=O)ccc1-c1ccc(F)cc1` [PT-056, N-(4′-fluoro-2-methylbiphenyl-4-yl)methanesulfonamide], the figure is 40.8%.

As for `CS(=O)(=O)Nc1ccc(-c2cccc(C(F)(F)F)c2)c(Cl)c1` [PT-036, N-[2-chloro-3′-(trifluoromethyl)biphenyl-4-yl]methanesulfonamide], the inhibition at 10 µM worked out at 64.1%. The same measure, in the same setting: as for `COC(=O)c1ccc(-c2ccc(NS(C)(=O)=O)cc2Cl)cc1` [PT-044, methyl 2′-chloro-4′-[(methylsulfonyl)amino]biphenyl-4-carboxylate], the figure is 50.6%; as for `CS(=O)(=O)Nc1ccc(-c2ccc(C(F)(F)F)cc2)cc1` [PT-006, N-[4′-(trifluoromethyl)biphenyl-4-yl]methanesulfonamide], 22.7%. As to `Cc1cc(N(Cc2ccc(C(=O)OC(C)(C)C)cc2)S(C)(=O)=O)ccc1-c1ccc(Oc2ccccc2)cc1` [PT-107, tert-butyl 4-{[(2-methyl-4′-phenoxybiphenyl-4-yl)(methylsulfonyl)amino]methyl}benzoate], the inhibition at 10 µM is 21.2%. The same measure, in the same setting: as for `COCCN(c1ccc(-c2ccc(Cl)c(F)c2)c(Cl)c1)S(C)(=O)=O` [PT-077, N-(2,4′-dichloro-3′-fluorobiphenyl-4-yl)-N-(2-methoxyethyl)methanesulfonamide], the figure is 27.2%. `COc1cc(N(Cc2ccc(C(=O)O)cc2)S(C)(=O)=O)ccc1-c1ccc(Oc2ccccc2)cc1` [PT-134, 4-((N-(2-methoxy-4′-phenoxybiphenyl-4-yl)methylsulfonamido)methyl)benzoic acid]: the inhibition at 10 µM worked out at 3.9%. On the same count and under the same terms, the result for `O=C(O)c1cc(-c2ccc(Oc3ccccc3)cc2)ccc1NS(=O)(=O)C1CC1` [PT-117, 4-[(cyclopropylsulfonyl)amino]-4′-phenoxybiphenyl-3-carboxylic acid] reads 40.7%; that for `CS(=O)(=O)Nc1ccc(-c2cccc(OC(F)(F)F)c2)c(F)c1` [PT-067, N-[2-fluoro-3′-(trifluoromethoxy)biphenyl-4-yl]methanesulfonamide], 70.7%.

Regarding `CS(=O)(=O)Nc1ccc(-c2cccc(OC(F)(F)F)c2)c(Cl)c1` [PT-021, N-[2-chloro-3′-(trifluoromethoxy)biphenyl-4-yl]methanesulfonamide], the inhibition at 10 µM came out at 77.5%. On the same count and under the same terms, as for `N#Cc1cc(NS(=O)(=O)C2CC2)ccc1-c1ccc(C(F)(F)F)cc1` [PT-130, N-(2-cyano-4′-(trifluoromethyl)biphenyl-4-yl)cyclopropanesulfonamide], the figure is 26%; as for `CS(=O)(=O)Nc1ccc(-c2ccc(F)c(Cl)c2)cc1` [PT-007, N-(3′-chloro-4′-fluorobiphenyl-4-yl)methanesulfonamide], 34.9%; as for `CS(=O)(=O)N(CC(=O)O)c1ccc(-c2cccc(OC(F)(F)F)c2)c(F)c1` [PT-103, N-[2-fluoro-3′-(trifluoromethoxy)biphenyl-4-yl]-N-(methylsulfonyl)glycine], 21.2%. The same measure, in the same setting: the result for `CS(=O)(=O)Nc1ccc(-c2ccc(C(F)(F)F)cc2)c(NC(=O)c2cccnc2)c1` [PT-165, N-(4-(methylsulfonamido)-4′-(trifluoromethyl)biphenyl-2-yl)nicotinamide] reads -0.3%; that for `O=S(=O)(C1CC1)N(Cc1cccnc1)c1ccc(-c2cccc(OC(F)(F)F)c2)c(Cl)c1` [PT-081, N-[2-chloro-3′-(trifluoromethoxy)biphenyl-4-yl]-N-(pyridin-3-ylmethyl)cyclopropanesulfonamide], 40.4%; that for `CS(=O)(=O)Nc1ccc(-c2ccc(OC(F)(F)F)cc2)c(Cl)c1` [PT-094, N-[2-chloro-4′-(trifluoromethoxy)biphenyl-4-yl]methanesulfonamide], 5.6%. Same read-out and setting: the result for `CS(=O)(=O)Nc1ccc(-c2ccc(Oc3ccccc3)cc2)cc1OC(F)(F)F` [PT-119, N-[4′-phenoxy-3-(trifluoromethoxy)biphenyl-4-yl]methanesulfonamide] reads 6.6%; that for `COP(=O)(O)c1cc(-c2ccc(Oc3ccc(F)cc3)cc2)ccc1NS(C)(=O)=O` [PT-159, methyl hydrogen 4′-(4-fluorophenoxy)-4-(methylsulfonamido)biphenyl-3-ylphosphonate], 36.1%.

`CS(=O)(=O)Nc1ccc(-c2ccc(C(F)(F)F)cc2)cc1OC(F)(F)F` [PT-075, N-[3-(trifluoromethoxy)-4′-(trifluoromethyl)biphenyl-4-yl]methanesulfonamide]: the inhibition at 10 µM amounted to 24.4%. Take `CS(=O)(=O)N(CC(=O)O)c1ccc(-c2cccc(OC(F)(F)F)c2)c(Cl)c1` [PT-029, N-[2-chloro-3′-(trifluoromethoxy)biphenyl-4-yl]-N-(methylsulfonyl)glycine]: the inhibition at 10 µM stood at 28.4%. The same measure, in the same setting: the result for `CC(C)(C)OC(=O)CN(c1ccc(-c2ccc(F)c(Cl)c2)c(Cl)c1)S(C)(=O)=O` [PT-102, tert-butyl N-(2,3′-dichloro-4′-fluorobiphenyl-4-yl)-N-(methylsulfonyl)glycinate] reads 53.6%; that for `CS(=O)(=O)Nc1ccc(-c2ccc(F)cc2Cl)c(Cl)c1` [PT-045, N-(2,2′-dichloro-4′-fluorobiphenyl-4-yl)methanesulfonamide], 57.5%; that for `CS(=O)(=O)Nc1ccc(-c2ccc(Cl)cc2)c(Cl)c1` [PT-043, N-(2,4′-dichlorobiphenyl-4-yl)methanesulfonamide], 71.5%.

Source of the values: patent publication US8389500B2, “Fused heterocyclic compounds as ion channel modulators” (Gilead Sciences, Inc., priority 2008, dated 2013).
